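Method: 48-hour compound exposure of cells in 96-well plates, five concentrations, linear interpolation of endpoints. The concentration for 50% growth inhibition is given as GI50.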 Calls of active or inactive are those of the source. No stated cut-off is given here; in the data, active = GI50 up to about 1.1 µM and inactive = higher.
Assays:
Test in all cases: DTP human tumour cell line panel, 48 h
[1] = system: 786-0
[2] = system: A549
[3] = system: ACHN
[4] = system: CCRF-CEM
[5] = system: COLO 205
[6] = system: DLD-1
[7] = system: DMS-114
[8] = system: DMS-273
[9] = system: EKVX
[10] = system: HCC 2998
[11] = system: HCT-116
[12] = system: HCT-15
[13] = system: HL-60
[14] = system: HOP-62
[15] = system: HOP-92
[16] = system: HT-29
[17] = system: IGROV-1
[18] = system: K562
[19] = system: KM-20L2
[20] = system: KM12
[21] = system: LOX IMVI
[22] = system: LXFL 529
[23] = system: M14
[24] = system: M19-MEL
[25] = system: MOLT-4
[26] = system: Malme-3M
[27] = system: NCI-H226
[28] = system: NCI-H23
[29] = system: NCI-H460
[30] = system: NCI-H522
[31] = system: OVCAR-3
[32] = system: OVCAR-5
[33] = system: OVCAR-8
[34] = system: RPMI-8226
[35] = system: RXF 393
[36] = system: SF-268
[37] = system: SF-539
[38] = system: SK-MEL-28
[39] = system: SK-MEL-2
[40] = system: SK-MEL-5
[41] = system: SK-OV-3
[42] = system: SN12C
[43] = system: SNB-19
[44] = system: SNB-75
[45] = system: SR
[46] = system: SW-620
[47] = system: TK-10
[48] = system: U-251
[49] = system: UACC-257
[50] = system: UACC-62
[51] = system: UO-31
[52] = system: XF498
[53] = system: A498
[54] = system: CAKI-1
[55] = system: SF-295
[56] = system: SNB-78

O=C1OC2(OC2c2ccccc2)c2ccccc21 (stereo not drawn)
GI50 [1]: > 100 µM (inactive) | GI50 [2]: > 100 µM (inactive) | GI50 [3]: > 100 µM (inactive) | GI50 [4]: > 100 µM (inactive) | GI50 [5]: > 100 µM (inactive) | GI50 [6]: > 100 µM (inactive) | GI50 [7]: 1.32 µM (inactive) | GI50 [8]: > 100 µM (inactive) | GI50 [9]: > 100 µM (inactive) | GI50 [10]: > 100 µM (inactive) | GI50 [11]: 5.05 µM (inactive) | GI50 [12]: > 100 µM | GI50 [13]: > 100 µM (inactive) | GI50 [14]: > 100 µM (inactive) | GI50 [15]: > 100 µM (inactive) | GI50 [16]: > 100 µM (inactive) | GI50 [17]: > 100 µM (inactive) | GI50 [18]: > 100 µM (inactive) | GI50 [19]: > 100 µM (inactive) | GI50 [20]: > 100 µM (inactive) | GI50 [21]: > 100 µM (inactive) | GI50 [22]: > 100 µM (inactive) | GI50 [23]: > 100 µM (inactive) | GI50 [24]: > 100 µM (inactive) | GI50 [25]: > 100 µM (inactive) | GI50 [26]: > 100 µM (inactive) | GI50 [27]: > 100 µM (inactive) | GI50 [28]: > 100 µM (inactive) | GI50 [29]: > 100 µM (inactive) | GI50 [30]: > 100 µM (inactive) | GI50 [31]: > 100 µM (inactive) | GI50 [32]: > 100 µM (inactive) | GI50 [33]: > 100 µM (inactive) | GI50 [34]: > 100 µM (inactive) | GI50 [35]: > 100 µM (inactive) | GI50 [36]: > 100 µM (inactive) | GI50 [37]: > 100 µM (inactive) | GI50 [38]: > 100 µM (inactive) | GI50 [39]: > 100 µM (inactive) | GI50 [40]: > 100 µM (inactive) | GI50 [41]: > 100 µM (inactive) | GI50 [42]: > 100 µM (inactive) | GI50 [43]: > 100 µM (inactive) | GI50 [44]: > 100 µM (inactive) | GI50 [45]: > 100 µM (inactive) | GI50 [46]: > 100 µM (inactive) | GI50 [47]: > 100 µM (inactive) | GI50 [48]: > 100 µM (inactive) | GI50 [49]: > 100 µM (inactive) | GI50 [50]: > 100 µM (inactive) | GI50 [51]: > 100 µM (inactive) | GI50 [52]: > 100 µM (inactive)

Nc1nc2c(ncn2CCOC(c2ccccc2)P(=O)(O)O)c(=O)[nH]1 (stereo not drawn)
GI50 [1]: > 100 µM (inactive) | GI50 [53]: > 100 µM (inactive) | GI50 [2]: > 100 µM (inactive) | GI50 [3]: > 100 µM (inactive) | GI50 [54]: > 100 µM (inactive) | GI50 [5]: > 100 µM (inactive) | GI50 [6]: > 100 µM (inactive) | GI50 [8]: > 100 µM (inactive) | GI50 [9]: > 100 µM (inactive) | GI50 [10]: > 100 µM (inactive) | GI50 [11]: > 100 µM (inactive) | GI50 [12]: > 100 µM | GI50 [13]: > 100 µM (inactive) | GI50 [16]: > 100 µM (inactive) | GI50 [17]: > 100 µM (inactive) | GI50 [19]: > 100 µM (inactive) | GI50 [20]: > 100 µM (inactive) | GI50 [21]: > 100 µM (inactive) | GI50 [22]: > 100 µM (inactive) | GI50 [26]: > 100 µM (inactive) | GI50 [27]: > 100 µM (inactive) | GI50 [28]: > 100 µM (inactive) | GI50 [29]: > 100 µM (inactive) | GI50 [30]: > 100 µM (inactive) | GI50 [31]: > 100 µM (inactive) | GI50 [32]: > 100 µM (inactive) | GI50 [33]: > 100 µM (inactive) | GI50 [35]: > 100 µM (inactive) | GI50 [36]: > 100 µM (inactive) | GI50 [55]: > 100 µM (inactive) | GI50 [37]: > 100 µM (inactive) | GI50 [38]: > 100 µM (inactive) | GI50 [39]: > 100 µM (inactive) | GI50 [40]: > 100 µM (inactive) | GI50 [41]: > 100 µM (inactive) | GI50 [42]: > 100 µM (inactive) | GI50 [43]: > 100 µM (inactive) | GI50 [44]: > 100 µM (inactive) | GI50 [56]: > 100 µM (inactive) | GI50 [45]: > 100 µM (inactive) | GI50 [46]: > 100 µM (inactive) | GI50 [47]: > 100 µM (inactive) | GI50 [48]: 1.09 µM (active) | GI50 [49]: > 100 µM (inactive) | GI50 [50]: > 100 µM (inactive) | GI50 [51]: > 100 µM (inactive)

Source: ChEMBL document CHEMBL1201862, “PubChem BioAssay data set” (2004)
